Patent US8206762B2, “Use of Echinacea or preparations thereof in compositions for the treatment of anxiety” (priority 2006, dated 2012)
Entries after “also recorded” stand apart in the source; their conditions may differ.

Key:
[1] = tested on: humans; settings: lorazepam 3×1 mg daily; buspirone 3×5 mg daily; cited from earlier work
[2] = tested on: rats; settings: cited from earlier work
[3] = tested on: mice; settings: cited from earlier work
[4] = tested on: Wistar rats; experiment: Elevated plus-maze test of anxiety; format: in vivo, rat; settings: FIG. 2
Protocol: For laboratory studies, we used an ethyl alcoholic Echinacea purpurea root tincture prepared by FitoChem Ltd. (H-2200 Monor, 14 Kossuth Str, ww.fitochem.hu), on the 21st of February, 2006 (Lot number FECH-010011205; analytical ID: 052/06). The dry residue was 1.7% w/w, whereas the lead content was less than 10 μg/g. Microbiological analysis provided satisfactory results (e.g. the total plate count was less than 1000 CFU/g). The extract containing 70% ethyl alcohol was stored at room temperature (validity date under these conditions: March, 2007), and used in experiments in April-May, 2006. Before use, ethyl alcohol was evaporated in vacuum at 4° C. by means of a Speed Vac Concentrator (Savant Instruments Inc., Farmingdale, USA). […] The dose was expressed as mg dry residue/kg body weight. […]
This test was described first by Pellow et al. (1984), and later became one of the most popular anxiety tests, frequently used for the identification of putative anxiolytics. […] To avoid confounds with anxiety, the locomotor effects of compounds are evaluated based on closed arm entries (Hogg, 1996).
The elevated plus-maze (arm length 50 cm, arm width 17 cm; wall height 30 cm; platform height 80 cm) was made of dark grey painted wood, and lit by 4 white lamps of 40 W each (approximately 200 lx). […] Behaviors were scored by experimenters blind to treatment conditions by means of a computer based event recorder. […]

Structure (SMILES)	time to significant effects over placebo on State-Trait Anxiety Inventory scores [1]	treatment time to State-Trait anxiety scores lower than 45 [1]	effect on anxiety in mice [3]	other results
O=C1CC2(CCCC2)CC(=O)N1CCCCN1CCN(c2ncccn2)CC1 [buspirone]	3 weeks	6 weeks		
Cc1c(C(=O)NN2CCCCC2)nn(-c2ccc(Cl)cc2Cl)c1-c1ccc(Cl)cc1 [SR-141716A]			anxiolytic	effect on anxiety in rats [2]: anxiogenic
O=C1Nc2ccc(Cl)cc2C(c2ccccc2Cl)=NC1O (centres unmarked) [lorazepam]	one week	three weeks		
CNC1=Nc2ccc(Cl)cc2C(c2ccccc2)=[N+]([O-])C1 [chlordiazepoxide]				locomotor behavior (closed arm entries) / sedation [4]: highly sedative at higher doses; also recorded: significant locomotor suppression
Cc1c(C(=O)NN2CCCCC2)nn(-c2ccc(Cl)cc2Cl)c1-c1ccc(I)cc1 [AM-251]			anxiogenic	
